According to patent US20080187605A1, “PREVENTING PATHOLOGICAL NERVE CELL SUICIDE (NEUROAPOPTOSIS) IN IMMATURE NERVOUS SYSTEMS” (priority 2007, published 2008):
Entries after “also recorded” stand apart in the source; their conditions may differ. Where two headings read alike, the source gives them in different places.

Tests used:
AKT = conditions: infant mice; within 30 minutes after ethanol
ERK-1 = conditions: infant mice; within less than 30 minutes after ethanol
ERK-2 = conditions: infant mice; within less than 30 minutes after ethanol
infant mouse brain [1] = conditions: 6 hrs; for number of AC3-positive profiles, ethanol by itself: ethanol 250 mg/g, mean across 5 brain regions, vs saline
Experimental: The mean number of AC3-positive profiles per mm^3 across all 5 brain regions was calculated for each treatment condition.

[2] = test system: caudate/putamen of infant mouse brain; test: Xenon and isoflurane neuroapoptosis, activated caspase-3 stereology
Experimental: Seven-day-old C57BL/6 mice were exposed to one of four conditions: air (control); 0.75% isoflurane; 70% xenon or 0.75% isoflurane+70% xenon (n≧9 per group) for 4 hours. All pups were euthanized 2 hours later for histopathological evaluation of the brains, using activated caspase-3 immunohistochemical staining to detect apoptotic neurons. Quantitative assessment of the number of apoptotic neurons in caudate/putamen under each condition was performed by unbiased stereology.
The results are depicted graphically in FIG. 7. In this graph, the number of apoptotic neurons under the control condition is given as 100% and the values for the experimental conditions are given as a percentage of the control.

infant mouse brain [3] = conditions: for number of AC3-positive profiles, ketamine by itself: five day old mice, ketamine 40 mg/kg, caudate nucleus and cerebral cortex, vs saline
Experimental: (§1) Five day old infant mice were treated either with saline or ketamine (40 mg/kg), or lithium carbonate (6 Meq/kg), or ketamine (40 mg/kg) plus lithium (6 Meq/kg). The animals were euthanized 6 hrs after initiation of drug exposure and the neuroapoptosis response in 2 different brain regions (caudate nucleus, cerebral cortex) was evaluated by stereological counting of neuronal profiles showing positive immunohistochemical staining for activated caspase 3 (AC3). The mean number of AC3-positive profiles per mm^3 across these 2 brain regions was calculated for each treatment condition.

infant mouse brain [4] = conditions: 6 hrs
Experimental: as §1, with “The” for “Five day old infant mice were treated either with saline or ketamine (40 mg/kg), or lithium carbonate (6 Meq/kg), or ketamine (40 mg/kg) plus lithium (6 Meq/kg). The”

[5] = test system: infant mouse brain (RSC/S and thalamus); conditions: infant mice; single dose of lithium carbonate before brain injury or up to 4 hours after injury
Excerpt: The method used herein for creating a consistent and reproducible head injury, in infant rats and mice, uses an electromagnetic impact device with a moving coil actuator, mounted on the arm of a stereotaxic holder. The actuator is positioned over the skull of an anesthetized animal, and has a blunt tip aimed at a specific location and angle on the skull. The actuator is driven electromagnetically, and impacts the skull at a computer-controlled speed, delivering a precise concussive force to a targeted zone on the skull.
As described in reports such as Bayly et al 2006, this type of concussive force can be applied to a single side of the head, creating nerve cell death by two different mechanisms. Brain cells directly beneath the skull at the site of impact die by an excitotoxic mechanism, which is confined to the local impact zone, and which leads to end-stage cell death within 4 hours. […]
In these tests, apoptotic neurons were detected by immunohistochemical staining of activated caspase-3 proteins. The quantitative counts were performed in RSC/S and thalamus tissues taken from both (i) the ipsilateral side of the brain, which was damaged, and (ii) the contralateral side of the brain, which was not damaged. […]

[6] = test system: caudate nucleus of infant mouse brain; test: Pilocarpine pretreatment against isoflurane- or midazolam-induced neuroapoptosis, activated caspase 3 IHC counts
Excerpt: Agents that suppress neuronal activity, including GABAergic anesthetic agents such as midazolam and isoflurane, trigger neuroapoptosis in the infant mouse brain. If suppression of neuronal activity is a sufficient cause of the neuroapoptosis response, it is possible that agents that increase neuronal activity, such as the muscarinic cholinergic agonist, pilocarpine, might counteract this response. […] Control littermates received saline instead of pilocarpine, then were exposed to the same midazolam or isoflurane treatments. The animals were euthanized 6 hrs after initiation of anesthetic drug exposure and the neuroapoptosis response in the caudate nucleus was evaluated by stereological counting of neuronal profiles showing positive IHC staining for activated caspase 3.

7 day old rat brain = conditions: xenon administered 4 hours ahead as preconditioning stimulus; cited from earlier work

In the case of `CCO` [ethanol], the “activated isoform of AKT” value (AKT) is reported as “marked suppression”, the “activated isoform of ERK-1” value (ERK-1) is reported as “rapid decrease” and the “activated isoform of ERK-2” value (ERK-2) is reported as “rapid decrease”. The “number of AC3-positive profiles, ethanol by itself” value (infant mouse brain [1]; five day old mice) was “strong neuroapoptotic response” and the “number of AC3-positive profiles, ethanol by itself” value (infant mouse brain [1]; five day old mice, listed as Ethanol) was “marked increase”.
With `FC(F)OC(Cl)C(F)(F)F` (stereo not shown) [isoflurane] the “neuroapoptosis in the caudate/putamen, drug alone compared to controls” value ([2]; mouse, in vivo) was “significant increase”.
In the case of `CNC1(c2ccccc2Cl)CCCCC1=O` (stereo not shown) [ketamine], the “number of AC3-positive profiles, ketamine by itself” value (infant mouse brain [3]; 6 hrs) is reported as “severe and pathological neuroapoptosis” and the “number of AC3-positive profiles, ketamine by itself” value (infant mouse brain [3]; 6 hrs, listed as Ketamine) is reported as “marked increase”.
With `O=C([O-])[O-].[Li+].[Li+]` [lithium, lithium carbonate] the “protection against ketamine-induced neuroapoptosis” value (infant mouse brain [3]; lithium 6 Meq/kg) was “total protection; also recorded: potently prevent”, the “apoptosis rate, lithium plus ketamine” value (infant mouse brain [3]; lithium 6 Meq/kg plus ketamine 40 mg/kg, 6 hrs) was “down to the same level as for lithium alone” and the “number of AC3-positive profiles, lithium by itself (spontaneous neuroapoptosis)” value (“number of AC3-positive profiles, lithium” below) (infant mouse brain [3]; lithium carbonate 6 Meq/kg, 6 hrs, ketamine experiment, vs saline controls) was “marked reduction”. For the same molecule, the “apoptosis rate, lithium plus propofol” value (infant mouse brain [4]; lithium 6 Meq/kg plus propofol 50 mg/kg) was “down to a level lower than the saline control level”, the “number of AC3-positive profiles, lithium” value (infant mouse brain [4]; lithium carbonate 6 Meq/kg, propofol experiment, vs saline controls) was “marked reduction” and the “apoptotic neurodegeneration after traumatic brain injury” value [5] was “prevented almost all”. For the same molecule, the “number of AC3-positive profiles, lithium” value (infant mouse brain [1]; five day old mice, lithium carbonate 3 or 6 Meq/kg (equally strong), vs saline controls) was “marked reduction”, the “apoptosis rate, lithium plus ethanol” value (infant mouse brain [1]; lithium 3 Meq/kg plus ethanol 250 mg/g) was “down to the same rate as in saline controls” and the “apoptosis rate, lithium plus ethanol” value (infant mouse brain [1]; lithium 6 Meq/kg (higher dose) plus ethanol 250 mg/g) was “down to lower than the saline control level”.
In the case of `Cc1ncc2n1-c1ccc(Cl)cc1C(c1ccccc1F)=NC2` [midazolam], the “apoptotic response in the caudate nucleus, anesthetic alone” value ([6]; infant mice, isoflurane 0.75% for 4 hrs or midazolam 9 mg/kg) is reported as “induced”.
In the case of `CC[C@@H]1C(=O)OC[C@@H]1Cc1cncn1C` [pilocarpine], the “neuroapoptotic response to isoflurane in the caudate nucleus” value ([6]; P5 mice, pilocarpine 20 mg/kg 2 hrs before isoflurane 0.75% for 4 hrs, euthanized 6 hrs after start of anesthetic, vs saline pretreatment) is reported as “significantly reduced; also recorded: markedly reduces”, the “neuroapoptotic response to midazolam in the caudate nucleus” value ([6]; P5 mice, pilocarpine 20 mg/kg 2 hrs before midazolam 9 mg/kg, euthanized 6 hrs after start of anesthetic, vs saline pretreatment) is reported as “significantly reduced; also recorded: markedly reduces” and the “degeneration of caudate neurons caused by a GABA anesthetic drug” value ([6]; infant mice, pilocarpine given prior to GABA anesthetic drug) is reported as “completely prevented, or greatly reduced”. The “protective effect depending on timing of pilocarpine” value ([6]; pilocarpine given at the same time as the anesthetic (protective if 2 or more hrs prior)) was “not if given at the same time”.
In the case of `[Xe]` [xenon], the “apoptotic response of xenon together with isoflurane, relative to xenon alone” value ([2]; 0.75% isoflurane+70% xenon for 4 hours) is reported as “only moderately higher”, the “neurotoxic reaction of xenon plus isoflurane, greater than control” value ([2]; 0.75% isoflurane+70% xenon for 4 hours, control (air) given as 100%) is reported as “about 350%” and the “protection against isoflurane-induced neuroapoptosis” value ([2]; 70% xenon combined with 0.75% isoflurane) is reported as “markedly reduces; also recorded: strongly protects; also recorded: markedly protects”. The “degree of neuroapoptotic response, drug alone” value ([2]; 70% xenon or 0.75% isoflurane alone for 4 hours) was “relatively weak neuroapoptogenic potential; also recorded: mild degree; also recorded: mild neuroapoptotic response”, the “neuroapoptosis in the caudate/putamen, drug alone compared to controls” value ([2]; seven-day-old mice, 70% xenon or 0.75% isoflurane for 4 hours, euthanized 2 hours later, vs air) was “significant increase” and the “hypoxic and/or ischemic neurodegeneration” value (7 day old rat brain) was “protect”.
